In test [1] the test system is SF-268 (human glioblastoma carcinoma). In words: Cytotoxicity assay (SRB). Format: cell-based. The conditions noted are these: SF-268 cells, mean ± SD. On the procedure: (§1) The cells of SF-268 (human glioblastoma carcinoma), MCF-7 (breast cancer), HepG-2 (liver cancer), and A549 (lung cancer) were purchased from Stem Cell Bank, Chinese Academy of Sciences. The cells were cultured in DMEM medium (Gibco) containing 10% fetal bovine serum (Gibco) at 37 °C in a humidified atmosphere with 5% (v/v) CO2. The cells were incubated in cultural flasks until sub-confluent (~80%). Then, cells (180 μL) with a density of 3 × 10^4 cells/mL of media were seeded onto 96-well plates and incubated for 24 h at 37 °C, 5% CO2. Subsequently, 20 μL of different concentrations of compounds ranging from 1 to 128 μM in DMSO were added to each plate well. Equal volume of DMSO was used as a negative control. The plates were further incubated for 72 h. After incubation, cell monolayers were fixed with 50% (wt/v) trichloroacetic acid (50 μL) and stained for 30 min with 0.4% (wt/v) SRB dissolved in 1% acetic acid. Unbound dye was removed by washing repeatedly with 1% acetic acid. The protein-bound dye was dissolved in 10 mM Tris base solution (200 µL) for OD determination at 570 nm using a microplate reader. […] All data were obtained in triplicate and presented as means ± SD. IC50 values were calculated with the Sigma Plot 10.0 software (Systat Software Inc., CA, USA) using a non-linear curve-fitting method.

The next test relates to HepG2 (liver cancer). In words: Cytotoxicity assay (SRB). The conditions noted are these: HepG2 cells, mean ± SD. The format is cell-based, human. On the procedure: as §1
Another test concerns MCF-7 (breast cancer). The test is described as follows: Cytotoxicity assay (SRB). The format is cell-based, human. The conditions noted are these: MCF-7 cells, mean ± SD. Here is the method: as §1
The next test has as its system A549 (lung cancer). The test is described as follows: Cytotoxicity assay (SRB). Format: cell-based, human. The conditions noted are these: A549 cells, mean ± SD. On the procedure: as §1
Another test concerns the target α-glucosidase. The test is described as follows: α-Glucosidase inhibitory activity assay (PNPG substrate). Format: biochemical. The conditions noted are these: pH 6.8, 37 °C. On the procedure:
Inhibitory α-glucosidase activities were determined spectrophotometrically in a 96-well microtiter plate based on p-nitrophenyl-α-D-glucopyranoside (PNPG) as a substrate. In brief, 20 μL 0.2 U/mL α-glucosidase enzyme solution, 50 μL 0.1 mol/L PBS (pH 6.8), and 10 μL of the test compounds in DMSO were mixed and preincubated at 37 °C prior to initiation of the reaction by adding the substrate. After 10 min of preincubation, 20 μL 5 mmol/L PNPG solution was added and then incubated together at 37 °C. After 15 min of incubation, 20 μL 0.2 mol/L Na2CO3 was added to the test tubes to stop the reaction. The absorbance values were measured at 405 nm and converted into percentage inhibitory activity using the following formula: AA(%) = [1 − Asample/(Anegative control − Ablank)] × 100%. […] All data were obtained in triplicate and presented as means ± SD. IC50 values were calculated with the Sigma Plot 10.0 software using a non-linear curve-fitting method.

The nature of test [2]: Antioxidative assay (DPPH radical scavenging). The conditions noted are these: 12 h, 517 nm. On the procedure:
Sample stock solutions (10 mM) were diluted to final concentrations of 2, 4, 8, 16, 32, 64, and 128 μM in ethanol. Then, 100 μL 0.2 mmol/L DPPH ethanol solution was added to 100 μL sample solutions of different concentrations on 96-well plates, and allowed to react at room temperature. […] After 12 h, the absorbance values were measured at 517 nm and converted into the percentage antioxidant activity (AA) using the following formula: AA(%) = [1 − (Asample − Ablank)/Acontrol] × 100%. All data were obtained in triplicate and are presented as means ± S.D. EC50 values were calculated with the SigmaPlot 10.0 software (Systat Software Inc., CA, USA) using a non-linear curve-fitting method.
On the technique in general: Loss of DPPH colour is used to gauge radical scavenging.

One may read the IC50 as the concentration that inhibits the measured activity by half. A word on the EC50: it is the midpoint of the concentration-response curve.

For `CCCCCC1(O)Cc2c3c(cc(O)c2C1=O)C=CC(C)(C)O3` (racemic) [(±)-3, Euroticin H], the IC50 in test [1] (Homo sapiens, SF-268, 72 h) was greater than 100 µM; in the test with HepG2 (liver cancer) (Homo sapiens, HepG2, 72 h) it was greater than 100 µM; with MCF-7 (breast cancer) (Homo sapiens, MCF7, 72 h), greater than 100 µM; with A549 (lung cancer) (Homo sapiens, A549, 72 h) it was greater than 100 µM; at α-glucosidase it was 16.3 ± 1.68 µM. The EC50 in test [2] was greater than 100 µM.

Turning to `CCCCCCCC1(O)CC(C=CC(C)(C)O)=CC1=O` (single isomer, unassigned; (+)) [(+)-4, Euroticin I], the IC50 was 12.7 ± 0.46 µM in test [1] (72 h); 19.9 ± 5.09 µM in the test on HepG2 (liver cancer) (72 h); 20.5 ± 1.54 µM in the test with MCF-7 (breast cancer) (72 h); 16.9 ± 0.92 µM in the test on A549 (lung cancer) (72 h); greater than 100 µM at α-glucosidase. In addition, the EC50 in test [2] is greater than 100 µM.

Regarding `CCCCCCCC1(O)CC(C=CC(C)(C)O)=CC1=O` (single isomer, unassigned; (-)) [(−)-4, Euroticin I], the IC50 was 23.7 ± 3.88 µM in test [1] (Homo sapiens, SF-268, 72 h); 19.5 ± 2.7 µM with HepG2 (liver cancer) (Homo sapiens, HepG2, 72 h); 23.6 ± 2.99 µM in the test with MCF-7 (breast cancer) (Homo sapiens, MCF7, 72 h); 22.2 ± 1.54 µM with A549 (lung cancer) (Homo sapiens, A549, 72 h); greater than 100 µM against α-glucosidase. Also, the EC50 in test [2] was greater than 100 µM.

`CC(C)=CCc1cc2c(c(C=O)c1O)C1C(O)CCC1C(C)O2` (single isomer, unassigned; (-)) [(−)-5, eurotirumin]: the IC50 in test [1] (Homo sapiens, SF-268, 72 h) was 35.6 ± 1.79 µM; in the test on HepG2 (liver cancer) (Homo sapiens, HepG2, 72 h), 40.7 ± 2.76 µM; with MCF-7 (breast cancer) (Homo sapiens, MCF7, 72 h), 50.7 ± 2.48 µM; with A549 (lung cancer) (Homo sapiens, A549, 72 h) it was 42.6 ± 1.43 µM; against α-glucosidase it was greater than 100 µM. In addition, the EC50 in test [2] is greater than 100 µM.

Turning to `CCCCC[C@H]1O[C@]2(C)Cc3c4c(cc(O)c3[C@H]1O2)C=CC(C)(C)O4` [(+)-1, Euroticin F], the IC50 is 21.9 ± 0.96 µM in test [1] (Homo sapiens, SF-268, 72 h); 28 ± 1.68 µM in the test with HepG2 (liver cancer) (Homo sapiens, HepG2, 72 h); 27.2 ± 2.03 µM in the test on MCF-7 (breast cancer) (Homo sapiens, MCF7, 72 h); 33.8 ± 0.34 µM with A549 (lung cancer) (Homo sapiens, A549, 72 h); greater than 100 µM at α-glucosidase. Besides, the EC50 in test [2] worked out at 42.3 ± 3.85 µM.

As to `CO[C@H]1O[C@@H]2CC[C@@H]([C@H](C)O)[C@@H]2c2c(O)cc(CC=C(C)C)c(O)c21` [(+)-2, Euroticin G], the IC50 is greater than 100 µM in test [1] (Homo sapiens, SF-268, 72 h); greater than 100 µM with HepG2 (liver cancer) (Homo sapiens, HepG2, 72 h); greater than 100 µM in the test on MCF-7 (breast cancer) (Homo sapiens, MCF7, 72 h); greater than 100 µM in the test on A549 (lung cancer) (Homo sapiens, A549, 72 h); 38 ± 2.73 µM against α-glucosidase. Moreover, the midpoint of the response in test [2], the EC50, lay at 76.9 ± 0.99 µM.

`CC(C)=CCc1cc2c(c(C=O)c1O)[C@@H]1[C@H](CC[C@@H]1O)[C@@H](C)O2` [(+)-5, eurotirumin]: the IC50 was 22 ± 0.88 µM in test [1] (Homo sapiens, SF-268, 72 h); 41.2 ± 2.63 µM in the test on HepG2 (liver cancer) (Homo sapiens, HepG2, 72 h); 55.6 ± 4.85 µM with MCF-7 (breast cancer) (Homo sapiens, MCF7, 72 h); 47.3 ± 0.71 µM in the test on A549 (lung cancer) (Homo sapiens, A549, 72 h); 89.4 ± 7.86 µM against α-glucosidase. For the same molecule, the EC50 in test [2] was greater than 100 µM.

On to `CCCCC[C@@H]1O[C@@]2(C)Cc3c4c(cc(O)c3[C@@H]1O2)C=CC(C)(C)O4` [(−)-1, Euroticin F], for which the IC50 in test [1] (Homo sapiens, SF-268, 72 h) was 37.3 ± 2.46 µM; in the test on HepG2 (liver cancer) (Homo sapiens, HepG2, 72 h) it was 30.7 ± 3.55 µM; in the test on MCF-7 (breast cancer) (Homo sapiens, MCF7, 72 h) it was 28 ± 1.57 µM; in the test with A549 (lung cancer) (Homo sapiens, A549, 72 h), 33.4 ± 1.5 µM; against α-glucosidase, greater than 100 µM. The molecule further gave an EC50 in test [2] of 41.4 ± 2.68 µM.

For `CO[C@@H]1O[C@H]2CC[C@H]([C@@H](C)O)[C@H]2c2c(O)cc(CC=C(C)C)c(O)c21` [(−)-2, Euroticin G], the IC50 in test [1] (Homo sapiens, SF-268, 72 h) was greater than 100 µM; with HepG2 (liver cancer) (Homo sapiens, HepG2, 72 h) it was greater than 100 µM; in the test with MCF-7 (breast cancer) (Homo sapiens, MCF7, 72 h), greater than 100 µM; in the test with A549 (lung cancer) (Homo sapiens, A549, 72 h), greater than 100 µM; at α-glucosidase, 79.7 ± 1.74 µM. The EC50 in test [2] was 77.1 ± 1.88 µM.

With `COc1cccc2c1C(=O)c1c(O)c3c(c(O)c1C2=O)C[C@@](O)(C(=O)CO)C[C@@H]3O[C@H]1C[C@H](N)[C@H](O)[C@H](C)O1` [Adriamycin, reference compound], the IC50 worked out at 1.19 ± 0.03 µM in test [1] (Homo sapiens, SF-268, 72 h); 1.99 ± 0.07 µM with HepG2 (liver cancer) (Homo sapiens, HepG2, 72 h); 2.02 ± 0.04 µM in the test with MCF-7 (breast cancer) (Homo sapiens, MCF7, 72 h); 1.73 ± 0.04 µM in the test with A549 (lung cancer) (Homo sapiens, A549, 72 h).

In test [2], `O=C1O[C@H]([C@@H](O)CO)C(O)=C1O` [Ascorbic acid, reference compound] returned an EC50 of 11.3 ± 0.56 µM.

The values above are taken from paper PMC8538301, “Structurally Diverse Polycyclic Salicylaldehyde Derivative Enantiomers from a Marine-Derived Fungus Eurotium sp. SCSIO F452” (Marine Drugs, 2021).
